1 molecule from ChEMBL document CHEMBL5113482, “Discovery of fused benzimidazole-imidazole autophagic flux inhibitors for treatment of triple-negative breast cancer” (Eur J Med Chem, 2022) can be followed below.

Activity calls are given as the source filed them. No cut-off for these calls is given here.

One may read the IC50 as the midpoint of a concentration-inhibition curve.

Experiment [1] deals with MDA-MB-468. The experiment is described as follows: Induction of apoptosis in human MDA-MB-468 cells assessed as increase in Bax expression measured after 48 hrs by Western blot analysis. Type of experiment: functional, cell-based. To be noted: dose 5-20 µM, DDE = dose-dependent effect.
Experiment [2] has as its system MDA-MB-231. The experiment is described as follows: Inhibition of autophagic flux in human MDA-MB-231 cells assessed as reduction in RNF8 expression at 5 to 20 uM measured after 6 to 48 hrs by Western blot analysis. It counts as functional, cell-based. As to conditions: dose 5-20 µM, time 6-48 hrs.
In experiment [3] the test system is MDA-MB-231. Kind of experiment: Antitumor activity against human MDA-MB-231 cells xenografted in ip dosed NOD/SCID mouse assessed as upregulation of LC3B-II expression administered at 3 days interval for 24 days and measured on day 25 by Western blot analysis. As to conditions: dose 5-15 mg/kg, time 25.0 day, DDE = dose-dependent effect. Type of experiment: functional, organism-based. In general terms: A xenograft is tissue or cells of one species grown in another, often human tumour cells in immunodeficient mice.

The test system of experiment [4] is HSC-3. Kind of experiment: Antiproliferative activity against human HSC-3 cells assessed as cell growth inhibition measured after 48 hrs by MTT assay. Type of experiment: functional, cell-based. To be noted: HSC-3, 48 h. (Formazan colour is commonly taken as a measure of viable cells.)
Experiment [5] has as its system MDA-MB-468. Kind of experiment: Cell cycle arrest in human MDA-MB-468 cells assessed as increase in CHK1 phosphorylation at Ser 345 residue measured after 48 hrs by Western blot analysis. As to conditions: dose 5-20 µM, DDE = dose-dependent effect. It counts as functional, cell-based. (A western blot detects proteins with antibodies after separation by electrophoresis.)

In experiment [6] the test system is PANC-1. The experiment is described as follows: Antiproliferative activity against human PANC cells assessed as cell growth inhibition measured after 48 hrs by MTT assay. Type of experiment: functional, cell-based. As to conditions: PANC-1, 48 h.
The target in experiment [7] is T1, Structural maintenance of chromosomes protein 1A (Homo sapiens) (UniProt Q14683).
T1 sequence (whole entry): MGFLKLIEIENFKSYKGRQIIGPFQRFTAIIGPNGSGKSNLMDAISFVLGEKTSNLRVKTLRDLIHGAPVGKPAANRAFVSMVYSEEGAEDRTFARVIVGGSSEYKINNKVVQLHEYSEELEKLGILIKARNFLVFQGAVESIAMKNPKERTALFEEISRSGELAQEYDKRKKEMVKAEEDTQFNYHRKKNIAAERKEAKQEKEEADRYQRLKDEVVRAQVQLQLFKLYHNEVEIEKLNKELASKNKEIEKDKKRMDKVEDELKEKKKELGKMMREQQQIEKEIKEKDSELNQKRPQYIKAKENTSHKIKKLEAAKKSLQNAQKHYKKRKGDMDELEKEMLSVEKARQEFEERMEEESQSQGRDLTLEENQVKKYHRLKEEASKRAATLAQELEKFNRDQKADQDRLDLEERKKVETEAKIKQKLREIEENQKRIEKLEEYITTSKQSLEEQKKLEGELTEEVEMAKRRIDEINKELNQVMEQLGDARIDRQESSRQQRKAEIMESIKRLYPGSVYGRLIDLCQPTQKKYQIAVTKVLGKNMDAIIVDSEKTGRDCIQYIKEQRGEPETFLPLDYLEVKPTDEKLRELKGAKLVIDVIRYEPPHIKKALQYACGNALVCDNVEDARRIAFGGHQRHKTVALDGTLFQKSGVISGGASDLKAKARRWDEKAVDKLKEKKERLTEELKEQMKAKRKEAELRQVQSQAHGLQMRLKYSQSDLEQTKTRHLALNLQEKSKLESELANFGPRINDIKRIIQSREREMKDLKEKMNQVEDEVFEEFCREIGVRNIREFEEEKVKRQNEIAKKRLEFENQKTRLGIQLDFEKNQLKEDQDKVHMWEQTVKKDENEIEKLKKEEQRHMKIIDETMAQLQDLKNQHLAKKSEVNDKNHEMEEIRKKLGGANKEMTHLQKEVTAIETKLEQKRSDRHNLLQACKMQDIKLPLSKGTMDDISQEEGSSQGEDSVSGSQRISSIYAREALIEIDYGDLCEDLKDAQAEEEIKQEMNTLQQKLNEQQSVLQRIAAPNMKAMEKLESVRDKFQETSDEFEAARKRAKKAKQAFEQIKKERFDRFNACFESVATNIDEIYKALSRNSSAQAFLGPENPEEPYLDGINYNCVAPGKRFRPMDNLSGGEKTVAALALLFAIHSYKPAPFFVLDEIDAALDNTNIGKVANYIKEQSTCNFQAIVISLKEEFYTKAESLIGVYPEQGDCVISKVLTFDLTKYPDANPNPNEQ
The experiment is described as follows: Activation of SMC1 phosphorylation in human MDA-MB-231 cells at 5 to 20 uM measured after 6 to 48 hrs by Western blot analysis. It counts as cell-based. As to conditions: filed as activator, dose 5-20 µM, time 6-48 hrs.

In experiment [8] the test system is MDA-MB-231. The experiment is described as follows: Antitumor activity against human MDA-MB-231 cells xenografted in NOD/SCID mouse assessed as reduction in tumor size at 5 to 15 mg/kg, ip administered at 3 days interval for 24 days and measured on day 25. It counts as functional, organism-based. To be noted: dose 5-15 mg/kg, time 25.0 day.
The test system of experiment [9] is MDA-MB-468. Kind of experiment: Induction of apoptosis in human MDA-MB-468 cells assessed as increase in cytochrome c expression measured after 48 hrs by Western blot analysis. As to conditions: dose 5-20 µM, DDE = dose-dependent effect. Type of experiment: functional, cell-based.
For experiment [10], the system named is MDA-MB-468. The experiment is described as follows: Induction of apoptosis in human MDA-MB-468 cells assessed as reduction in Bcl-2 expression measured after 48 hrs by Western blot analysis. It counts as functional, cell-based. As to conditions: dose 5-20 µM, DDE = dose-dependent effect.
Experiment [11] relates to MDA-MB-468. Kind of experiment: Induction of apoptosis in human MDA-MB-468 cells assessed as increase in cleaved PARP expression measured after 48 hrs by Western blot analysis. As to conditions: dose 5-20 µM, DDE = dose-dependent effect. Type of experiment: functional, cell-based.
Experiment [12] relates to MDA-MB-231. The experiment is described as follows: Cell cycle arrest in human MDA-MB-231 cells assessed as reduction in cyclin A expression measured after 48 hrs by Western blot analysis. It counts as functional, cell-based. As to conditions: dose 5-20 µM, DDE = dose-dependent effect.
In experiment [13] the test system is MDA-MB-468. The experiment is described as follows: Inhibition of autophagic flux in human MDA-MB-468 cells assessed as increase in nuclear p62 expression measured after 48 hrs by Western blot analysis. It counts as functional, cell-based. As to conditions: dose 5-20 µM, DDE = dose-dependent effect.
In experiment [14] the target is T1, Structural maintenance of chromosomes protein 1A (Homo sapiens). The experiment is described as follows: Activation of SMC1 phosphorylation in human MDA-MB-468 cells at 5 to 20 uM measured after 6 to 48 hrs by Western blot analysis. It counts as cell-based. To be noted: filed as activator, dose 5-20 µM, time 6-48 hrs.
Experiment [15] deals with MDA-MB-468. Kind of experiment: Antiproliferative activity against human MDA-MB-468 cells assessed as reduction in cell count by microscopy. Type of experiment: functional, cell-based.
The test system of experiment [16] is U-251. The experiment is described as follows: Antiproliferative activity against human U-251 cells assessed as cell growth inhibition measured after 48 hrs by MTT assay. It counts as functional, cell-based. As to conditions: U-251, 48 h.
Experiment [17] concerns LN-229. The experiment is described as follows: Antiproliferative activity against human LN-229 cells assessed as cell growth inhibition measured after 48 hrs by MTT assay. As to conditions: LN-229, 48 h. It counts as functional, cell-based.
Experiment [18] deals with MDA-MB-468. Kind of experiment: Inhibition of colony formation in human MDA-MB-468 cells at 5 to 20 umol/l pretreated for 48 hrs followed by replacement of fresh medium and measured after 15 days by crystal violet staining based assay. It counts as functional, cell-based. To be noted: dose 5-20 µmol/L.
In experiment [19] the test system is MDA-MB-468. Kind of experiment: Inhibition of autophagic flux in human MDA-MB-468 cells assessed as reduction in polyubiquitinated H2A expression measured after 48 hrs by Western blot analysis. Type of experiment: functional, cell-based.
Experiment [20] has as its system MDA-MB-468. The experiment is described as follows: Antiproliferative activity against human MDA-MB-468 cells assessed as cell growth inhibition measured after 48 hrs by MTT assay. It counts as functional, cell-based. To be noted: MDA-MB-468, 48 h.
In experiment [21] the test system is MDA-MB-231. Kind of experiment: Induction of apoptosis in human MDA-MB-231 cells assessed as increase in cleaved PARP expression measured after 48 hrs by Western blot analysis. Type of experiment: functional, cell-based. As to conditions: dose 5-20 µM, DDE = dose-dependent effect.
Experiment [22] concerns MDA-MB-231. The experiment is described as follows: Antiproliferative activity against human MDA-MB-231 cells assessed as reduction in Ki67 expression measured after 48 hrs by immunofluorescence analysis. Type of experiment: functional, cell-based.
Experiment [23] deals with MDA-MB-231. The experiment is described as follows: Induction of apoptosis in human MDA-MB-231 cells assessed as increase in Bak expression measured after 48 hrs by Western blot analysis. It counts as functional, cell-based. As to conditions: dose 5-20 µM, DDE = dose-dependent effect.

As for `O=C(NC1CCCCC1)c1[nH]cnc1-c1nc2ccccc2[nH]1`, the Activity entry in [1], in experiment [3], in [5], in experiment [9], in [10] and in [11] was “Dde” each time. Moreover, the Activity entry in experiment [12], in experiment [21] and in [23] was “Dde” throughout. The inhibition entry in experiment [2], in [18] and in [19] was “Active” in each case. The IC50 in [4] was determined as 24 µM; in experiment [6] it was 19.2 µM; in experiment [16], 12.9 µM; in [17], 61.4 µM; in experiment [20], 6.03 µM. For the same molecule, the outcome in experiment [7], in experiment [8], in experiment [14], in experiment [15] and in experiment [22] was Active. The inhibition result in [13] is “Dde”.
